# Test results from patent US20130202646A1, “COMPOSITIONS AND METHODS FOR MODULATING AUTOPHAGY” (SAN DIEGO STATE UNIVERSITY (SDSU) FOUNDATION, priority 2010, published 2013).
# Assays:
# HL-1 cells [1] = experiment: Autophagy scored by intracellular distribution of GFP-LC3 (fluorescence microscopy) in HL-1 cells; assay type: cell-based, murine; details: for effect on upregulation/induction of autophagy by CCPA: inhibitor pretreatment, then CCPA, normoxic, before ischemia
# HL-1 cells [2] = experiment: Cell death by LDH release after simulated ischemia/reperfusion (sI/R) in HL-1 cells; assay type: cell-based, murine; details: for effect on cytoprotection by CCPA (LDH release): inhibitor plus CCPA, then sI/R (2 hr sI, 3 hr R)
# Description: Cells of the murine atrial-derived cardiac cell line HL-1^16 were plated in gelatin/fibronectin-coated culture vessels and maintained in Claycomb medium^16 (JRH Biosciences, Lenexa, Kans.) supplemented with 10% fetal bovine serum, 0.1 mm norepinephrine, 2 mm […], 100 U·mL^-1 penicillin, 100 U·mL^-1 streptomycin, and 0.25 μg·mL^-1 amphotericin B. Cells were plated in 14-mm diameter glass bottom microwell dishes (MatTek), and ischemia was introduced by a buffer exchange to ischemia-mimetic solution (in mM: 20deoxyglucose, 125 NaCl, 8 KCl, 1.2 KH2PO4, 1.25 MgSO4, 1.2 CaCl2, 6.25 NaHCO2, 5 sodium lactate, 20 HEPES, pH 6.6) and placing the dishes in hypoxic pouches (GasPakTM EZ, BD Biosciences) equilibrated with 95% N2, 5% CO2. After 2 hr of simulated ischemia, reperfusion was initiated by a buffer exchange to normoxic MKH buffer and incubation at 95% room air, 5% CO2. Controls incubated in normoxic MKH buffer were run in parallel for each condition for periods of time that corresponded with those of the experimental groups. […] The cell cultures were washed with PBS prior to the experimental treatment. Protein content and LDH activity were determined according to El-Ani et al.^20. Briefly, 25 μl supernatants from 35 mm dishes were transferred into wells of a 96-well plate, and the LDH activities were determined with an LDH-L kit (Sigma), according to the manufacturer. The product of the enzyme was measured spectrophotometrically at 30° C. at a wavelength of 340 nm as described previously^21. The results were expressed relative to the control (X-fold) in the same experiment. Each experiment was done in triplicate and was repeated at least three times.
# adult rat cardiomyocytes [3] = experiment: Autophagy (GFP-LC3 puncta) in adult rat cardiomyocytes; assay type: cell-based
# [4] = system: isolated perfused rat hearts; experiment: Langendorff global ischemia/reperfusion injury in isolated perfused rat hearts (CK release, TTC infarct size, hemodynamics)
# [5] = system: isolated perfused rat hearts; experiment: Autophagy in isolated perfused rat hearts (LC3-II/LC3-I Western blot, cadaverine dye binding)
# HL-1 cells [6] = experiment: Cell death by propidium iodide uptake after sI/R in HL-1 cells; assay type: cell-based, murine; details: 100 nM CCPA 10 min before sI/R; end of reperfusion
# Description: Cells were plated in 14-mm diameter glass bottom microwell dishes (MatTek), and ischemia was introduced by a buffer exchange to ischemia-mimetic solution (in mM: 20deoxyglucose, 125 NaCl, 8 KCl, 1.2 KH2PO4, 1.25 MgSO4, 1.2 CaCl2, 6.25 NaHCO2, 5 sodium lactate, 20 HEPES, pH 6.6) and placing the dishes in hypoxic pouches (GasPakTM EZ, BD Biosciences) equilibrated with 95% N2, 5% CO2. After 2 hr of simulated ischemia, reperfusion was initiated by a buffer exchange to normoxic MKH buffer and incubation at 95% room air, 5% CO2. Controls incubated in normoxic MKH buffer were run in parallel for each condition for periods of time that corresponded with those of the experimental groups. Cells were stained immediately after sI/R with propidium iodide (5 μg/ml), which stains nuclei of cells whose plasma membranes have become permeable because of cell damage. The assay was performed according to […] et al.^22. For counterstaining we used Hoechst 33342 (10 μM), which stains the nuclei of all cells.
# [7] = system: mCherry-LC3 transgenic mice; experiment: Induction of autophagy in vivo in hearts of mCherry-LC3 transgenic mice
# adult rat cardiomyocytes [8] = details: CCPA 10 min before simulated ischemia (FIG. 7B)
# [9] = system: neonatal rat cardiomyocytes; experiment: Autophagosomes (GFP-LC3) in neonatal rat cardiomyocytes; details: 100 nM CCPA, 10 min
# Description: To analyze the number of GFP-LC3 puncta in population, cells were inspected at 60× magnification and classified as: (a) cells with predominantly diffuse GFP-LC3 fluorescence; or as (b) cells with numerous GFP-LC3 puncta (>30 dots/cell), representing autophagosomes. At least 200 cells were scored for each condition in three or more independent experiments.
# (A) GFP-LC3 transfected HL-1 cells were treated for 120 min in full medium (FM) with various concentrations (0.001-10 μM) of CCPA. (B) GFP-LC3-transfected HL-1 cells were treated with 100 nM CCPA for the indicated time, then fixed with paraformaldehyde and scored by fluorescence microscopy. […] (D) Representative images of neonatal cardiomyocytes under control conditions or 10 min after administration of 100 nM CCPA. (E) Representative images of adult cardiomyocytes under control conditions or 10 min after administration of 100 nM CCPA. (F) Transgenic mice expressing mCherry-LC3 under the αMHC promoter received an i.p. injection of saline or 1 mg/kg CCPA, then were sacrificed 30 min later and heart tissue was processed for fluorescence microscopy.
# PKC δ = experiment: PKC delta translocation/redistribution in perfused rat heart and adult rat cardiomyocytes; assay type: cell-based
# PKC epsilon = PKC epsilon translocation in perfused rat heart; assay type: cell-based; details: after SUL administration
# Description: Subcellular fractionation. Frozen heart samples were thawed on ice in homogenization buffer containing (in mmol/L): Tris-HCL 20, EDTA 2, EGTA 10, PMSF 1, leupeptin 0.1, E-64 0.01, and sucrose 250). The tissue was then minced and Plytron homogenized (Kinematica, Basel, Switzerland) on ice for 15s for three passes. The homogenates were centrifuged at 600 g for 5 min at 4° C, and the crude supernatants were further centrifuged at 10,000 g for 10 min 4° C. The supernatant, designated as crude cytosol, was divided and one fraction was further centrifuged at 100,000 g for 1 h at 4° C. The resulting supernatant was designated as cytosolic fraction. The pellet was resuspended in homogenization buffer with 1% TritonX-100, incubated on ice for 1 h, then centrifuged at 100,000 g for 1 h at 4° C. The resulting supernatant was designated as the particulate fraction. Samples were stored at −80° C. until use. Western blot analysis. Proteins prepared from rat hearts were quantified by Bio-Rad protein assay. For immunodetection, 50 μg of crude cytosol prepared as above were resolved on SDS-PAGE 10% denaturing gels and transferred to PVDF nylon membranes. The membranes were blocked with 5% nonfat dry milk in TNT buffer (in mM: NaCl 100, Tris·HCl 10 (pH 7.4), and 0.1% Tween-20) for 1 h. […] To quantify the protein, intensity of bands was assessed with Scion Image Software.
compound,measurement,setting,value
COc1ccc2c(c1)CC[C@@H]1[C@@H]2CC[C@]2(C)[C@@H](NCCCCCCN3C(=O)C=CC3=O)CC[C@@H]12 [U73122],autophagy after sI/R (repair autophagy),"HL-1 cells [1]; inhibitor 15 min, then CCPA 10 min, then sI/R",an increase in autophagy after sI/R
same,effect on upregulation/induction of autophagy by CCPA,HL-1 cells [1],PLC is required for CCPA stimulation of autophagy before ischemia
same,effect on cytoprotection by CCPA (LDH release),HL-1 cells [2],an increase in LDH release
COc1ccc2c(c[n+](C)c3c4cc5c(cc4ccc23)OCO5)c1OC [chelerythrine],effect on SUL-induced increase in cells with numerous autophagosomes,adult rat cardiomyocytes [3]; chelerythrine 5 μM 10 min before 10 μM SUL,suppressed
same,infarct size with or without SUL,[4]; chelerythrine 15 min before ischemia,no difference in infarct size whether SUL is present or absent
same,effect on autophagy induced by SUL (cadaverine dye binding),[5]; chelerythrine with SUL,suppressed autophagy induced by SUL
CC(=O)OCOC(=O)CN(CC(=O)OCOC(C)=O)c1ccccc1OCCOc1ccccc1N(CC(=O)OCOC(C)=O)CC(=O)OCOC(C)=O [BAPTA-AM],effect on upregulation/induction of autophagy by CCPA,HL-1 cells [1],suprressed the induction of autophagy by CCPA
CCCn1c(=O)c2[nH]c(C3CCCC3)nc2n(CCC)c1=O [DPCPX],effect on upregulation/induction of autophagy by CCPA,HL-1 cells [1],partially blocked
same,effect on autophagy in the second window of protection,"HL-1 cells [1]; with CCPA 10 min, washout, 20-24 hr later",blocked the effects of CCPA on autophagy
same,effect on cytoprotection by CCPA (LDH release),HL-1 cells [2],Cytoprotection was abolished
same,effect on cytoprotection by CCPA in the second window of protection (LDH release),"HL-1 cells [2]; with CCPA 10 min, washout, sI/R 20-24 hr later",abolished the cytoprotection by CCPA
"OC[C@H]1O[C@@H](n2cnc3c(NC4CCCC4)nc(Cl)nc32)[C@H](O)[C@@H]1O [CCPA, 2-chloro-N(6)-cyclopentyladenosine]",percentage of cells with numerous autophagosomes (autophagic flux),"HL-1 cells [1]; 100 nM 10 min, full medium, with or without Bafilomycin A1 (FIG. 2)",increased the percentage of cells with numerous autophagosomes under both steady-state and cumulative conditions
same,autophagosomes after sI/R,"HL-1 cells [1]; 100 nM 10 min, then 2 hr sI, 3 hr R",Fewer autophagosomes
same,extent of autophagy induced by starvation,"HL-1 cells [1]; 100 nM 10 min, then starvation in MKH 3 hr",no effect
same,autophagy in delayed preconditioning,"HL-1 cells [1]; 24 hr after 10 min CCPA and washout, normoxia",upregulated
same,repair autophagy at reperfusion in delayed preconditioning,"HL-1 cells [1]; 24 hr after 10 min CCPA, then sI/R",less
same,persistence of the increase in autophagosomes,HL-1 cells [1]; CCPA 100 nM,at least 300 min
same,time to increase in the number of autophagosomes,HL-1 cells [1]; CCPA 100 nM,≤ 10 min
same,induction of autophagy,"HL-1 cells [1]; full medium, 0.001-10 μM, 120 min (FIG. 1A)",induced autophagy in a dose-dependent fashion
same,LDH release,"HL-1 cells [2]; 100 nM CCPA 10 min before sI/R, end of simulated ischemia",diminished LDH release
same,uptake of propidium iodide,HL-1 cells [6],diminished
same,autophagy (percentage of cells with numerous puncta),adult rat cardiomyocytes [3]; CCPA 10 min (FIG. 7A),induced autophagy
same,number of mCherry-LC3-labeled structures in left ventricle cryosections,"[7]; CCPA 1 mg/kg i.p., 30 min",a large increase in the number of mCherry-LC3-labeled structures
same,cytoprotection (LDH release at end of simulated ischemia),adult rat cardiomyocytes [8],conferred cytoprotection
same,number of autophagosomes,[9],an increase in the number of autophagosomes
C/C=C(/C)C(=O)O[C@H]1C(C)=C2[C@H]([C@@H]1OC(=O)CCCCCCC)[C@@](C)(OC(C)=O)C[C@H](OC(=O)CCC)[C@@]1(O)[C@H]2OC(=O)[C@@]1(C)O [thapsigargin],effect on upregulation/induction of autophagy by CCPA,HL-1 cells [1],suprressed the induction of autophagy by CCPA
"Nc1ccc(S(=O)(=O)Nc2ccnn2-c2ccccc2)cc1 [SUL, sulfaphenazole]",percentage of cells with numerous autophagosomes,"adult rat cardiomyocytes [3]; 10 μM SUL, 30 min",significantly increased
same,number of autophagosomes in hearts,[7]; SUL 10 mg/kg i.p.,significant increase in the number of autophagosomes
same,contractility before ischemia,[4]; 10 μM SUL,no effect
same,infarct size (TTC),"[4]; 10 μM SUL from 10 min before ischemia, 30 min ischemia, 120 min reperfusion",reduced infarct size
same,recovery of contractile function after I/R,"[4]; 10 μM SUL, pre-ischemic administration",about 90 % of pre-ischemic value
same,CK release,"[4]; 10 μM SUL, coronary effluent, first 15 min of reperfusion",attenuated CK release
same,infarct size,"[4]; SUL alone, 120 min reperfusion",5 % of the area at risk
same,infarct size (TTC),[4]; SUL introduced at the onset of reperfusion,the reduction of infarct size was sustained
same,infarct size (TTC),"[4]; SUL introduced at the onset of reperfusion, listed as sulfaphenazole",reduces infarct size
same,BODIPY-TR-cadaverine incorporation into autophagosomes,[5]; SUL administration (FIG. 15B),increased
same,ratio of LC3-II/I,[5]; SUL perfusion 30 min,doubling
same,PKC delta translocation (cytosol to particulate fraction),"PKC δ; Langendorff-perfused heart, 30 min after SUL infusion",translocation of PKC delta to the particulate fraction
same,distribution of PKC delta (immunostaining),"PKC δ; adult rat cardiomyocytes, SUL 15 min",much more closely aligned with alpha-actinin
same,PKC epsilon translocation,PKC epsilon,did not show a consistent pattern of translocation
